Assay results from patent publication US20260258004A1, “CRYSTALLINE FORMS OF (6S)-5-[4'-FLUORO-2-(TRIFLUOROMETHYL)BIPHENYL-4-YL]-6-METHYL-3,6- DIHYDRO-2H-l,3,4-OXADIAZIN-2-ONE” (Bayer Aktiengesellschaft, priority 2022, published 2026).

Experiments:
[1] = Particle size distribution by laser diffraction (Malvern Panalytical Mastersizer 3000, Fraunhofer); format: physicochemical
Method: The particle size distribution was measured by laser diffraction using the Malvern Panalytical Mastersizer 3000.
The samples are again taken from example 1.6 (probe 1) and example 1.5 (probe 2), the same as used in example 4.
The sample to be analyzed is dispersed in 1 drop of Tween 80 the sample is processed according to ISO13320.
Laser diffraction is an often-used method for determination the particle size of dispersed solid materials. A widened laser beam illuminates a cuvette which contains part of the particles. By diffraction on the particles a characteristic pattern can be mapped on the detector. The resulting diffraction image is the additive overlaying of diffraction images of all particles.
Besides the mentioned detector two additional detectors are mounted in order to detect diffraction light in forward direction (FA1,9), in wide angle (LA1,2) and in back direction (BS1,2). The turbidity of the sample is measured by an extinction sensor. This is necessary to ensure a low particle concentration which is necessary to avoid wrong results by multiple diffraction of light at several particles.
The cuvette used was a wet unit where the suspension is pumped in a closed circuit with a dispersing unit that ensures a separation of single particles by shear forces.
The measurement range of the Malvern 3000 covers a particle size from 1 mm (2 mm) down to 20 nm
The calculation of the particle size distribution from the diffraction patterns was done on basis of theory of Fraunhofer.
This assumption is valid for particle sizes of 10 to 50 μm and above. For smaller particles the light scattering of the particle itself due to optical transparency must be considered which is done in the Mie-theory (not used for our probes). Precondition of the application of the Mie-theory is the knowledge of the refractive and absorption index of the dispersed solids.
Q3 is the cumulative volume distribution, e.g. D50=Q(50%) indicates 50% of the volume part of the sample is smaller than particle size of 50 μm.
The particle size is expressed as an equivalent diameter used in the method recommended by the Malvern Analysis Program and as described in ISO13320.

[2] = Determination of bulk density during shear tests; format: physicochemical; settings: during shear test
Method: Because of the normal stress of 1.5 kPa applied on the top of the lid during the shear test the lid lowers into the shear cell and compresses the powder.
During the shear tests this lowering of the lid is measured and recorded. Since the volume of the bottom ring is known and weight of the sample measured before the beginning of the shear test the bulk density of the sample during the shear test is calculated
[formula] • with: • ρb,shear: Bulk density under shear • mges: total mass of shear cell including powder sample (w/o lid) • mcell: net mass of shear cell (w/o powder sample, w/o lid) • hc: height of the bottom ring • hl: lowering of lid • Acell: bottom area of shear cell
The calculation of the bulk density is done automatically with the evaluation software provided together with the shear tester.

[3] = without ultrasound (US), listed as Probe 2

difference between Q3[50] of untreated sample and sample treated 300 s with ultrasound [1]: significantly smaller
D(10) ([1]; 300 s US, listed as Probe2): 14.5 μm
D(50) ([1]; 300 s US, listed as Probe2): 57.3 μm
D(90) ([1]; 300 s US, listed as Probe2): 170 μm
Cumulative volume distribution Q ([1]; particle size D 0.01 μm, 300 s US): 0%
Cumulative volume distribution Q ([1]; particle size D 0.01 μm, without US): 0%
Cumulative volume distribution Q ([1]; particle size D 0.0114 μm, 300 s US): 0%
Cumulative volume distribution Q ([1]; particle size D 0.0114 μm, without US): 0%
Cumulative volume distribution Q ([1]; particle size D 0.0129 μm, 300 s US): 0%
Cumulative volume distribution Q ([1]; particle size D 0.0129 μm, without US): 0%
Cumulative volume distribution Q ([1]; particle size D 0.0147 μm, 300 s US): 0%
Cumulative volume distribution Q ([1]; particle size D 0.0147 μm, without US): 0%
Cumulative volume distribution Q ([1]; particle size D 0.0167 μm, 300 s US): 0%
Cumulative volume distribution Q ([1]; particle size D 0.0167 μm, without US): 0%
Cumulative volume distribution Q ([1]; particle size D 0.0189 μm, 300 s US): 0%
Cumulative volume distribution Q ([1]; particle size D 0.0189 μm, without US): 0%
Cumulative volume distribution Q ([1]; particle size D 0.0215 μm, 300 s US): 0%
Cumulative volume distribution Q ([1]; particle size D 0.0215 μm, without US): 0%
Cumulative volume distribution Q ([1]; particle size D 0.0244 μm, 300 s US): 0%
Cumulative volume distribution Q ([1]; particle size D 0.0244 μm, without US): 0%
Cumulative volume distribution Q ([1]; particle size D 0.0278 μm, 300 s US): 0%
Cumulative volume distribution Q ([1]; particle size D 0.0278 μm, without US): 0%
Cumulative volume distribution Q ([1]; particle size D 0.0315 μm, 300 s US): 0%
Cumulative volume distribution Q ([1]; particle size D 0.0315 μm, without US): 0%
Cumulative volume distribution Q ([1]; particle size D 0.0358 μm, 300 s US): 0%
Cumulative volume distribution Q ([1]; particle size D 0.0358 μm, without US): 0%
Cumulative volume distribution Q ([1]; particle size D 0.0407 μm, 300 s US): 0%
Cumulative volume distribution Q ([1]; particle size D 0.0407 μm, without US): 0%
Cumulative volume distribution Q ([1]; particle size D 756 μm, 300 s US): 100%
Cumulative volume distribution Q ([1]; particle size D 756 μm, without US, listed as Probe 2): 99.65%
Cumulative volume distribution Q ([1]; particle size D 859 μm, 300 s US): 100%
Cumulative volume distribution Q ([1]; particle size D 859 μm, without US, listed as Probe 2): 99.9%
Cumulative volume distribution Q ([1]; particle size D 976 μm, 300 s US): 100%
Cumulative volume distribution Q ([1]; particle size D 976 μm, without US, listed as Probe 2): 100%
Cumulative volume distribution Q ([1]; particle size D 1110 μm, 300 s US): 100%
Cumulative volume distribution Q ([1]; particle size D 1110 μm, without US): 100%
Cumulative volume distribution Q ([1]; particle size D 1260 μm, 300 s US): 100%
Cumulative volume distribution Q ([1]; particle size D 1260 μm, without US): 100%
Cumulative volume distribution Q ([1]; particle size D 1430 μm, 300 s US): 100%
Cumulative volume distribution Q ([1]; particle size D 1430 μm, without US): 100%
Cumulative volume distribution Q ([1]; particle size D 1630 μm, 300 s US): 100%
Cumulative volume distribution Q ([1]; particle size D 1630 μm, without US): 100%
Cumulative volume distribution Q ([1]; particle size D 1850 μm, 300 s US): 100%
Cumulative volume distribution Q ([1]; particle size D 1850 μm, without US): 100%
Cumulative volume distribution Q ([1]; particle size D 2100 μm, 300 s US): 100%
Cumulative volume distribution Q ([1]; particle size D 2100 μm, without US): 100%
Cumulative volume distribution Q ([1]; particle size D 2390 μm, 300 s US): 100%
Cumulative volume distribution Q ([1]; particle size D 2390 μm, without US): 100%
Cumulative volume distribution Q ([1]; particle size D 2710 μm, 300 s US): 100%
Cumulative volume distribution Q ([1]; particle size D 2710 μm, without US): 100%
Cumulative volume distribution Q ([1]; particle size D 3080 μm, 300 s US): 100%
Cumulative volume distribution Q ([1]; particle size D 3080 μm, without US): 100%
Cumulative volume distribution Q ([1]; particle size D 3500 μm, 300 s US): 100%
Cumulative volume distribution Q ([1]; particle size D 3500 μm, without US): 100%
robustness of crystals ([1]; ultrasound treatment, compared to polymorph A): more robust
D(10) [1, 3]: 69.1 μm
D(50) [1, 3]: 179 μm
D(90) [1, 3]: 380 μm
bulk density compared with sample 1 (FIG. 22) [2]: significantly higher
bulk density ([2]; normal stress 1.5 kPa): about 550 kg/m^3
Compound: C[C@@H]1OC(=O)NN=C1c1ccc(-c2ccc(F)cc2)c(C(F)(F)F)c1 [polymorph C, (6S)-5-[4′-Fluoro-2-(trifluoromethyl)biphenyl-4-yl]-6-methyl-3,6-dihydro-2H-1,3,4-oxadiazin-2-one]
